According to patent US9511074B2, “Methods of treating disorders associated with protein polymerization” (UNIVERSITY OF PITTSBURGH—OF THE COMMONWEALTH SYSTEM OF …, priority 2009, dated 2016):

Experiments:
[1] = system: wild type AT in the HTO/M cell line; test: Steady state levels of wild type AT in the HTO/M cell line (immunoblot); format: cell-based, human; details: FIG. 1D
Text: (§1) Cell Lines The human epidermal HeLa cell line with doxycycline-regulated expression of ATZ (HTO/Z) has been described previously (1). HTO/M and HTO/Saar are HeLa cell lines with doxycycline-regulated expression of wild type AT and the AT Saar variant, respectively (1). A murine embryonic fibroblast cell line (MEF) with targeted disruption of Atg5 (2) was engineered for stable expression of ATZ using the previously described pRc/RSV-ATZ expression plasmid (3). A wild type MEF cell line was also engineered for stable expression of ATZ in the same way to serve as control. For experiments with CBZ, the inducible cell lines were cultured in the absence of doxycycline for at least 4 weeks for maximal expression of AT. The cells were then subcultured into separate monolayers in fresh complete growth medium and incubated for 48 hours in the absence or presence of CBZ or rapamycin (RAP). CBZ or RAP were added to the growth medium. The duration of incubation with CBZ was determined to be optimal at 48 hours based on experiments in which the duration was varied from 12 to 72 hours. Doses of CBZ were based on previous studies of its effects in cell lines (5,6). […]
(§2) For immunoblot analysis to detect AT, GAPDH or LC3, cells were lysed in 50 mM Tris-HCl, 150 mM NaCl, 1% NP-40, pH 8.0. Protein levels were quantified using the BCA protein assay (Pierce Biotechnology, Rockford, Ill.). […]

[2] = system: BiP in the HTO/Z cell line; test: Steady state levels of BiP in the HTO/Z cell line (immunoblot); format: cell-based, human; details: FIG. 1D
Text: as §1, §2

[3] = system: ATZ in the HTO/Z cell line; test: Pulse labeling and pulse-chase labeling of ATZ in the HTO/Z line; format: cell-based, human
Procedure: Radioimmunoprecipitation, SDS-PAGE and Immunoblot Analysis Biosynthetic labeling, pulse-chase labeling, immunoprecipitation and SDS-PAGE/fluorography for AT followed previously published protocols (1). […] For the pulse labeling experiments, HTO/Z cells were incubated for 48 hours in the absence or presence of CBZ in several different concentrations and then subjected to labeling for 30 mins. The cell lysates were then examined by immunoprecipitation and the immunoprecipitates analyzed by SDS-PAGE/fluorography. For the pulse-chase experiments, HTO/Z cells were incubated for 48 hours in the absence of presence of CBZ 30 μM and then pulse labeled for 30 mins. The cells were then washed and incubated in growth medium without tracer for several different time intervals to constitute the chase. CBZ 30 μM was included during the pulse and chase periods. The extracellular fluid and cell lysate samples were subjected to immunoprecipitation and the immunoprecipitates analyzed by SDS-PAGE/fluorography. All fluorograms were subjected to densitometry. The relative densitometric value of T0 is set at 100% and the remainder of the data set expressed as % of this control. The data are shown as mean+/−SE and the mean value at each time point is shown at the bottom of the figure.

[4] = system: ATZ in Atg5 deficient cell line; test: ATZ levels in autophagy-deficient (Atg5-/-) MEF cell line; format: cell-based, murine; details: Atg5-deficient cells
Text: as §1, §2

human AT = test: Serum levels of human ATZ in PiZ mice by ELISA; format: in vivo, mouse; details: CBZ 250 mg/kg/day for 2 weeks
Procedure: For ELISA on mouse serum specimens, Nunc Maxisorp plates were first coated with goat anti-human AT (Bethyl), then blocked in PBS-Tween20 containing 5% nonfat milk. Serum samples were loaded into the wells in 1:20,000 dilution using purified human AT serial dilutions (1.56 to 100 ng/ml) as a standard. Rabbit-anti human AT (Dako) was used as […], and goat anti-rabbit IgG-HRP (Dako) a secondary antibody. Protein levels were detected with OPD (Sigma).

[5] = system: smooth muscle actin, collagen IA and TGFβ mRNA; test: Stellate cell activation markers in liver of PiZ mice by Q-PCR; format: in vivo, mouse
Procedure: Quantitative PCR (Q-PCR) Levels of mRNA from smooth muscle actin, collagen IA and TGFβ in liver of PiZ mice were determined by Q-PCR using primers from ABI and previous described conditions (19).

APP-PS1 mouse = test: Plaque load and Aβ ELISA in APP-PS1 mouse model of AD; format: in vivo; details: APP-PS1 mice, 200 mg/kg/day gavage, 5 doses per wk, 3 wks
Text: The APP-PS1 mouse model of AD is associated with accelerated amyloid deposition with plaques resembling AD in humans starting to appear at 12 weeks of age (12) and progressive behavioral changes starting at 6 months of age (55, 56). Only a limited number of mice were available at the ideal age, 9 wks, at the time of the study, so the pilot study was very small. 9-12 wks of age was selected as the ideal age because it represents the age with the earliest consistent appearance of AP deposition in APP-PS1 mice. Mice were treated by orogastric gavage with CBZ 200 mg/kg/day, 5 doses per wk, for 3 wks; n=2 for CBZ and n=4 for vehicle (DMSO). Brain sections were stained with X-34, antibodies to Aβ1-40 and Aβ1-42 to determine plaque load using techniques as described previously (57).

PiZ mice = test: Pulmonary fibrosis in PiZ mice (Sirius Red staining with quantitative morphometry); format: in vivo, mouse; details: 3-month-old PiZ mice, 200 mg/kg/day, 5 days per week for 3 weeks
Procedure: Experiments were performed to determine if CBZ can mediate a decrease in lung fibrosis in the PiZ mouse in vivo. 3-month-old PiZ mice were treated 5 days per week for 3 weeks with diluent DMSO or CBZ 200 mg/kg/day (n=3-8 mice per group). In this series of experiments lung fibrosis was assayed by Sirius Red staining with quantitative morphometry.

NC(=O)N1c2ccccc2C=Cc2ccccc21 [CBZ, 5H-dibenz [b,f]azepine-5-carboxamide]
wild-type AT levels [1]: did not affect | BiP levels [2]: did not affect | total protein synthesis or secretion (radioactivity in TCA precipitates) ([3]; HTO/Z cells): did not show any effects | synthesis of ATZ ([3]; pulse labeling 30 mins after 48 hours CBZ): did not affect | secretion of ATZ ([3]; pulse-chase, CBZ 30 μM): could not be attributed to enhanced secretion | half-time of disappearance of ATZ from the intracellular compartment ([3]; pulse-chase, CBZ 30 μM, 200 min in untreated cells): 130 min | levels of soluble ATZ [4]: decrease | serum concentrations of human AT (human AT): not significantly affected | collagen 1A level ([5]; not statistically significant): decreased | transforming growth factor b level ([5]; not statistically significant): decreased | smooth muscle actin level ([5]; reached statistical significance): decreased | soluble and insoluble Aβ1-40 and Aβ1-42 by ELISA (APP-PS1 mouse): trend toward lower values | plaque load (X-34, anti-Aβ1-40, anti-Aβ1-42 staining) (APP-PS1 mouse; n=2): marked reduction | Sirius red staining of lung (pulmonary fibrosis) (PiZ mice): statistically significant reduction
